The values below are quoted from earlier work in patent US6355270B1, “Particles for oral delivery of peptides and proteins” (The Regents of the University of California, priority 1999, dated 2002).

Data set [1] has as its system intestinal tight junctions. The note with it: rabbit intestine, in vitro, reversible.
The subject of data set [2] is intestinal tight junctions. The conditions noted are these: in vivo.

Read-outs that look alike come from different tables or passages of the source.

With Zonula occludens toxin [Zot], the “increase of intestinal permeability to insulin” value in data set [1] (P=0.034) is on record as 72%. Moreover, the “increase of intestinal permeability to immunoglobulins” value in data set [1] (P=0.04) is 52%. Moreover, the “increase of insulin absorption” value in data set [2] (both rabbit jejunum and ileum) is reported as 10 fold. The “change of insulin absorption” value in data set [2] (rabbit colon) is “no substantial changes”. Besides, the “increase of IgG absorption” value in data set [2] (rabbit ileum) is “six-fold”; in data set [2] (rabbit jejunum), “twofold”. In the data set with diabetic rats (diabetic animals chronically treated with oral insulin+Zot, versus parenterally treated rats), the survival time result was “comparable to that observed in parenterally treated rats”. The “lowering of serum glucose concentrations” value with diabetic rats (diabetic rats, oral insulin co-administered with Zot, versus parenteral injection of insulin) is reported as “comparable to those obtained after parenteral injection of the hormone”.
